From patent US7384656B2, “Anti-allergy composition and related method” (Access Business Group International LLC, priority 2004, dated 2008)

Tested on: IgE receptor (FcεRIα) on RBL-2H3 cells
Assay: IgE receptor expression on RBL-2H3 cells (anti-FcεRIα cell ELISA normalized to MTT viability)
Type: cell-based
Conditions: 100 μg/ml
Protocol: The methodology used to obtain the results of FIG. 1 will now be described. First, RBL-2H3 cells, available from ATCC (American Type Culture Collection) of Manassas, Va., were plated in 96 well plates at 3×10^4/well. Following adherence to the wells, the cells were exposed to the sample combinations of ingredients listed in Table I, each combination referred to as a “sample.” Stock solutions of all samples were prepared in a solution of DMSO, ethanol, and water present in a ratio of 5:3:2 at 100 mg/ml. […] Duplicate plates of each sample were prepared so that viability could be determined multiple times for each sample, with the results of the multiple samples averaged following treatment of the cells. The plates were incubated an additional 48 hours. To measure IgE-receptor expression, the cells were fixed for 2 hours with 1% gluteraldehyde. Following fixation, the cells were washed twice with PBS-Tween 20 (0.01%), available from Aldrich of Milwaukee, Wis. Protein binding sites were blocked for 2 hours with 2% non-fat dry milk in PBS (Phosphate Buffer Saline buffered at pH 7.3). The cells were washed twice. The primary antibody, Rabbit anti-FcεRIα, available from Upstate Group, Inc., Lake Placid, N.Y., was added to the wells and diluted 1:4000 with 0.2% BSA (Bovine Serum Albumin). Following a 2 hour incubation, the wells were washed 5× with PBS-Tween 20 (0.01%) solutions. The secondary antibody, Goat anti-rabbit IgG-peroxidase, available from Sigma-Aldrich of St. Louis, Mo., was added to the wells at 1:20000 with 0.2% BSA. Following a 1 hour incubation the wells were washed five times. 100 μliters (microliters) of TMB (3,3′,5,5±Tetramethyl benzidine dihydrochloride) Substrate, available from Chemicon International of Temecula, Calif., was added to the wells. Subsequent color development was stopped by the addition of a sufficient amount, H2SO4 (for example, 100 μliters at 1 Normal). For each of the multiple samples of the combination, the OD450 (Optical Density measured at a wavelength of 450 nanometers) was read on a plate reader. Continuing with a description of the methodology to obtain the data in FIG. 1, the viability of the cells was next determined by incubating the cells in the second plate with MTT in a concentration of 1 mg/ml for 3 hours. The reduced MTT was extracted with 70% isopropanol and the OD540 (Optical Density at a wavelength of 540 nanometers) was read for each of the multiple samples.

O=c1cc(-c2ccc(O)c(O)c2)oc2cc(O)cc(O)c12 [Luteolin]
Percent Control, IgE Receptor Expression (IgE-R) (Table VIII): about 90%
effect on IgE receptor expression, in words (FIG. 7): significant effect
Percent Control IgE-Receptor (Table IV) (relative to untreated control cells): 82%
Percent Control, IgE Receptor Expression (IgE-R) (Table VIII) (listed as Luteolin from Perilla seed): 90.1%
